From patent US8288442B2, “Use of derivatives of valproic acid amides and 2-valproenic acid amides for the treatment or prevention of pain and/or headache disorders” (Yissum Research Development Company of The Hebrew …, priority 2000, dated 2012)

How the values were obtained:
[1] = system: plasma protein extravasation; assay: migraine model of Moskowitz (plasma protein extravasation into the dura mater); format: in vivo; conditions: control = 100
Source text: Evaluation of the anti-headache effects of Compounds 1 and 2 are followed in the migraine model of Moskowitz (Suzzi, M. C. and Moskowitz, M. A.). In this model, neurogenic inflammation results in the leakage of plasma proteins into the dura matter (plasma protein extravasation), which can be quantified by measuring the leakage of radioactive albumin (Suzzi, M. C. and Moskowitz, M. A.).

[2] = system: rat constriction injury model; assay: rat chronic constriction injury model of neuropathic pain (cold allodynia); format: in vivo; conditions: read-out: ED50 for reversal of cold allodynia
Experimental: The anti-pain effects of Compounds 1 and 2 are evaluated in a model for traumatic nerve injury. The specific model is the rat constriction injury model, a commonly accepted model for the evaluation of the potential of a compound to treat chronic neuropathic pain. The end point is whether a compound can reverse cold allodynia in rats following a neuropathic injury. MC may be used as the control.

[3] = system: Chung model; assay: Chung model of neuropathic pain (L5/L6 spinal nerve ligation, tactile allodynia, von Frey filaments); format: in vivo, rat; conditions: 300 mg/kg per os, male Sabra rats
Source text: The potential of Compound 1 to serve as an anti-pain agent was studied in the Chung model (Kim, S. H. and Chung, J. M.). This model is known as a reliable model, predictive for human pain. (Kim, S. H. and Chung, J. M.). In this model, spinal nerves L5 and L6 of the rat are tightly ligated and cut in order to induce neuropathic pain. Male Sabra rats weighing 250-275 g were used throughout the study. Under xylazine-ketamine anesthesia, both the L5 and L6 spinal nerves of one side of the rat were tightly ligated and cut. Pain behavior was measured following operation in all groups using withdrawal latencies of the hind paw to mechanical stimulation with von Frey filaments (tactile allodynia). The mechanical sensitivity of the foot was quantified by the occurrence of foot withdrawal in response to normally innocuous mechanical stimuli. Eight different von Frey filaments ranging from 0.6 to 26 g were used.
The efficacy (antiallodynic effect) of the compound was evaluated (300 mg/kg, per os (oral)) in eight rats at days 7 and 14 postoperation in a double-blind randomized crossover manner. The testing included estimation of time of peak effect following drug administration and measurement of the ability of the compound to decrease tactile allodynia.

Row | SMILES | Percent Extravasation Compared to Control [1] | ED50 [2] | Time of peak effect ([3]; antiallodynic effect) | Effect on tactile allodynia in comparison to vehicle ([3]; days 7 and 14 postoperation, significant at 60 min (p=0.0207) and 120 min (p=0.0102))
1 | CCCC(CCC)C(=O)NCC(N)=O [Compound 1, N-(2-n-propylpentanoyl)glycinamide] | <100 | < 500 mg/kg | 60 min | reversed tactile allodynia
2 | CC/C=C(\CCC)C(=O)NCC(N)=O [Compound 2, N-(2-n-propylpent-2-enoyl)glycinamide] | <100 | < 500 mg/kg |  | 
